Values joined by “and” are separate entries in the source; they are usually repeats but may differ in a detail not shown here. Equal entries are not always repeated.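 Tested at 5 concentrations; 48 h exposure; 96-well plates; endpoints linearly interpolated, else capped at highest concentration. GI50: concentration for 50% inhibition of growth. Definition used: TGI = concentration required for complete inhibition of growth.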
Experiments:
Test in all cases: NCI anticancer screen, dose series, 48 h
IGROV1 ovarian = system: IGROV1 ovarian
UO-31 renal = system: UO-31 renal
UACC-62 melanoma = system: UACC-62 melanoma
SK-OV-3 ovarian = system: SK-OV-3 ovarian
NCI-H23 lung = system: NCI-H23 lung
A549 NSCLC = system: A549 NSCLC
SK-MEL-5 melanoma = system: SK-MEL-5 melanoma
ACHN renal = system: ACHN renal
PC-3 prostate = system: PC-3 prostate
A498 renal = system: A498 renal
786-0 renal = system: 786-0 renal

Structure (SMILES)	TGI (IGROV1 ovarian)	TGI (UO-31 renal)	TGI (UACC-62 melanoma)	TGI (SK-OV-3 ovarian)	TGI (NCI-H23 lung)	TGI (A549 NSCLC)	TGI (SK-MEL-5 melanoma)	TGI (ACHN renal)	GI50 (PC-3 prostate)	TGI (PC-3 prostate)	GI50 (IGROV1 ovarian)	GI50 (UO-31 renal)	GI50 (UACC-62 melanoma)	GI50 (NCI-H23 lung)	GI50 (A549 NSCLC)	GI50 (SK-MEL-5 melanoma)	GI50 (A498 renal)	TGI (A498 renal)	GI50 (ACHN renal)	TGI (786-0 renal)
CC(Sc1ccccc1)C(CO)(CO)[N+](=O)[O-] (stereo not given)	38 µM	22.6 µM	29.9 µM	39.9 µM	33.3 µM	34.1 µM	25.8 µM	30.6 µM												
O=C1c2cc3c(cc2-c2c1c1ccc(Cl)cc1c(=O)n2C[C@H](O)[C@@H](O)[C@H](O)CO)OCO3	> 100 µM	0.125 µM	0.111 µM		0.193 µM	0.476 µM	0.0701 µM	0.118 µM	0.128 µM	> 100 µM	0.126 µM	0.0297 µM	0.0129 µM	0.0293 µM	0.112 µM	0.0253 µM	0.0673 µM	0.207 µM	0.0254 µM	
O=C(O)C(CSC(c1ccccc1)(c1ccccc1)c1ccccc1)N=Cc1cccs1 (stereo not given)	> 100 µM	> 100 µM	> 78.3 µM	> 67.5 µM	43.3 µM	> 100 µM	> 24.7 µM	> 100 µM		> 42.4 µM								> 96.8 µM		> 53.2 µM
O=S1(=O)OC(c2ccc(O)cc2)(c2ccc(O)cc2)c2ccccc21	> 100 µM	> 100 µM	> 100 µM	> 100 µM	> 100 µM	> 100 µM	> 100 µM	> 100 µM		> 100 µM								> 100 µM		> 100 µM
N#CC(c1ccccc1)N1CCCN(C(C#N)c2ccccc2)C1c1ccccc1O (stereo not given)	> 100 µM	> 100 µM	> 100 µM	> 100 µM	> 100 µM	> 100 µM	> 100 µM	> 100 µM		> 100 µM								> 100 µM		> 100 µM
Cc1cc(O)c(C(C)C)cc1CN1CCCCC1	> 100 µM	> 100 µM	> 100 µM	> 100 µM	> 100 µM	> 100 µM	> 100 µM	> 100 µM		> 100 µM								> 100 µM		> 100 µM
Clc1ccc(Nc2nc(Cl)c3[nH]cnc3n2)cc1Cl	> 100 µM	66.6 µM	> 100 µM	> 100 µM	73.2 µM	> 100 µM	52.1 µM	> 100 µM		66.2 µM								34.9 µM		30.8 µM
CN(C)CCn1c(=O)c2ccc3c4c(nn3CCN(C)C)c3cc(N)ccc3n(c1=O)c24	4.45 µM	0.0501 µM	0.281 µM	0.621 µM	0.021 µM	0.114 µM	0.237 µM	0.428 µM		0.114 µM								0.364 µM		0.0573 µM
O=S(=O)(O)c1cccc2c(N=Nc3c(O)ccc4ccccc34)cccc12	> 100 µM	> 100 µM	> 100 µM	> 100 µM	> 100 µM	> 100 µM	> 100 µM	> 100 µM		> 100 µM								> 100 µM		> 100 µM
N[C@H]1CCN(c2c(F)cc3c(=O)c(C(=O)O)cn4c3c2Oc2cc3c(ccc5ccccc53)cc2-4)C1	> 100 µM	> 100 µM	> 100 µM	> 100 µM	> 100 µM	> 100 µM	4.3 µM	8.06 µM		6.34 µM								> 100 µM		> 100 µM
CC[C@@]1(O)C(=O)OCc2c1cc1n(c2=O)Cc2c-1nc1ccc(O)cc1c2CC[Si](C)(C)C	0.202 µM	0.123 µM and 0.0795 µM	0.0172 µM and 0.0149 µM		0.0103 µM and 0.0118 µM	0.24 µM and 0.167 µM	0.123 µM and 0.0438 µM	0.363 µM	0.0525 µM	> 100 µM								0.0279 µM		
COc1ccc(/C=C(\C#N)c2nc(N)nc(N3N=C(C)CC3(C)C)n2)c(O)c1	56.4 µM	36 µM	34.6 µM	65.1 µM	42.3 µM	44.5 µM	28.5 µM	31 µM		> 100 µM								69.7 µM		30 µM
CC(=O)N(C)c1ccc2c(ccc[n+]2[O-])c1[N+](=O)[O-]	> 100 µM	> 100 µM	> 100 µM		> 100 µM	> 100 µM	> 100 µM	> 100 µM										> 100 µM		> 100 µM
CC1(C)CCC2(C(=O)OC3OC(CO)C(O)C(O)C3O)CCC3(C)C(=CCC4C5(C)CCC(OC6OC(CO)C(O)C(O)C6O)C(C)(C)C5CCC43C)C2C1 (stereo not given)	> 25 µM	> 25 µM	> 25 µM	> 25 µM	> 25 µM	> 25 µM	> 25 µM	> 25 µM		> 25 µM								> 25 µM		> 25 µM
C[C@]12CCC(=O)C=C1CC[C@@H]1[C@@H]2[C@@H](O)C[C@@]2(C)[C@H]1CC[C@]2(O)C(=O)CO	> 100 µM	> 100 µM	> 100 µM	> 100 µM	> 100 µM	> 100 µM	> 100 µM	> 100 µM		> 100 µM								> 100 µM		> 100 µM
Nc1nc(N)c2c(n1)NC(c1ccccc1)CC(/C=C/c1ccc(Cl)cc1)=N2 (stereo not given)	7.67 µM	23.4 µM	25 µM	29.4 µM	16.1 µM	60.8 µM	23.4 µM	25.5 µM		22 µM								32.9 µM		12 µM
Nc1ccccc1N/C(=C\C(=O)C(Cl)(Cl)Cl)c1ccccc1	71 µM	39 µM	45.3 µM	> 100 µM	> 100 µM	> 100 µM	29 µM	75.4 µM		68.8 µM										54.3 µM

Structure (SMILES)	TGI (IGROV1 ovarian)	TGI (UO-31 renal)	TGI (UACC-62 melanoma)	TGI (SK-OV-3 ovarian)	TGI (NCI-H23 lung)	TGI (A549 NSCLC)	TGI (SK-MEL-5 melanoma)	TGI (ACHN renal)	GI50 (PC-3 prostate)	TGI (PC-3 prostate)	GI50 (IGROV1 ovarian)	GI50 (UO-31 renal)	GI50 (UACC-62 melanoma)	GI50 (NCI-H23 lung)	GI50 (A549 NSCLC)	GI50 (SK-MEL-5 melanoma)	GI50 (A498 renal)	TGI (A498 renal)	GI50 (ACHN renal)	TGI (786-0 renal)
CCOC(=O)C1CCn2c(nc3c2c(=O)n(C)c(=O)n3C)S1 (stereo not given)	> 100 µM		> 100 µM	> 100 µM	> 100 µM	> 100 µM	> 100 µM	> 100 µM												
O=[N+]([O-])c1ccc2c(c1)c(N=NC(=S)NC1CCCCC1)c(O)n2CN1CCOCC1	15.4 µM	18.4 µM	20.5 µM	25.9 µM	21.4 µM	15.7 µM	11.3 µM	18 µM		19 µM								17.5 µM		18.6 µM
O=C(CCN1CC2CCC(CC2)C1)c1cccs1	25.8 µM	23.9 µM	31.9 µM	> 53.4 µM	36.7 µM	> 57.6 µM	> 100 µM	33.6 µM		31.1 µM								> 100 µM		20.9 µM
CCC(C)C1NC(=O)C2CCCN2C(=O)C(CC2CO2)OC(=O)CCNC(=O)C(C)N(C)C(=O)C(C(C)C)N(C)C1=O (stereo not given)	> 100 µM	15 µM	2.15 µM	> 100 µM	> 100 µM	> 33.6 µM	< 0.0276 µM	> 100 µM		> 100 µM								> 100 µM		
CN1C2CCC1C(C(O)c1ccccc1[N+](=O)[O-])C(=O)C2 (stereo not given)	> 100 µM	> 100 µM	> 100 µM	> 100 µM	> 100 µM	> 100 µM	> 100 µM	> 100 µM		> 100 µM								> 100 µM		> 100 µM
C/C(=N\NC(=O)c1cccnc1)c1cccc(/C(C)=N/NC(=O)c2cccnc2)n1	27.7 µM	80.7 µM	5.7 µM	82.4 µM	> 100 µM	34.7 µM	7.12 µM	12.2 µM			3.74 µM					2.05 µM	4.86 µM	68.1 µM		
O=[n+]1c2c(n([O-])c3ccccc31)-c1cccc3cccc-2c13		> 100 µM			> 100 µM	> 100 µM	> 100 µM	> 100 µM		> 100 µM								> 100 µM		
COC(=O)C1C(C)N1C (stereo not given)	> 100 µM		> 100 µM	> 100 µM	> 100 µM	> 100 µM	> 100 µM													
C[C@]12CC[C@@H]3c4ccccc4CC[C@H]3[C@@H]1CC[C@@H]2O	> 100 µM	> 100 µM	> 100 µM	> 100 µM	> 100 µM	> 100 µM		> 100 µM												> 100 µM
O=S(=O)(/N=C(\NO)Nc1ccc(Cl)cc1)c1ccc(S(=O)(=O)c2ccccc2)s1	39.8 µM	53.8 µM	33.7 µM		52.1 µM	> 100 µM	24.5 µM	89.3 µM		> 100 µM								41.8 µM		> 100 µM
NCCNc1nc(N2CCCC2)c2nc(Cl)c(NCc3ccccc3)nc2n1	4.7 µM	3.32 µM	3.19 µM	3.79 µM	5.46 µM	3.36 µM	3.27 µM	3.99 µM		7.62 µM								4.4 µM		3.08 µM
NNC(=O)c1ccccc1Nc1ccccc1C(=O)NN	> 100 µM	> 100 µM	> 100 µM	> 100 µM	> 100 µM	> 100 µM	> 100 µM	> 100 µM		> 100 µM										> 100 µM
[O-][N+](CCO)(CCO)c1ncnc2nc[nH]c12	> 100 µM	> 100 µM	> 100 µM	> 100 µM	> 100 µM	> 100 µM	> 100 µM	> 100 µM		> 100 µM								> 100 µM		> 100 µM
COC(=O)C1C(O)CCC2CN3CCc4c([nH]c5cccc(OC)c45)C3CC21 (stereo not given)	> 100 µM	> 100 µM	> 100 µM	> 100 µM	> 100 µM	> 100 µM		> 100 µM		> 100 µM								> 100 µM		> 100 µM
OCCOCn1cc(Cn2ncc3c(SCc4ccccc4)ncnc32)nn1	> 100 µM	> 100 µM	> 100 µM	> 100 µM	> 100 µM	> 100 µM	> 100 µM	> 100 µM		> 100 µM								> 100 µM		> 100 µM
COc1c2c(cc3c1C(O)N1CC[C@]34[C@H]3O[C@H]3[C@H](OC)C[C@@H]14)OCO2 (stereo not given in full)	> 100 µM	> 100 µM	> 100 µM	97.1 µM	> 100 µM	> 100 µM	> 100 µM	> 100 µM		> 100 µM								> 100 µM		> 100 µM
CC(=O)OC1CC(O)CC2=CCC3C4CCC(C(C)(O)C(O)CC5COC(=O)C5C)C4(C)CCC3C21C (stereo not given)	> 25 µM	> 25 µM	> 25 µM	> 25 µM	> 25 µM	> 25 µM	> 25 µM	> 25 µM		> 25 µM								> 25 µM		> 25 µM

Reference: PubChem BioAssay (NCI)
